Measured values published in US20120142646A1, “Novel Compounds 621” (priority 2006, published 2012).
Structures can show the parent of a compound that is named as a salt.

These compounds were tested against T1, Adrenergic β2 (Homo sapiens, UniProt P07550) (assay: Adrenergic β2 mediated cAMP production in H292 cells (AlphaScreen cAMP detection)). Settings: Intrinsic Activity as a fraction relative to the maximum activity determined for formoterol.
T1 construct: Adherent H292 cells were removed from tissue culture flasks; endogenous in cells; host or cells: H292 cells
Assay type: cell-based
Set-up: key to β2 Int Act: fraction of formoterol maximum activity (formoterol = 1)
Experimental: Adrenergic β2 Mediated cAMP Production
H292 cells were grown in 225 cm2 flasks incubator at 37° C., 5% CO2 in RPMI medium containing, 10% (v/v) FBS (foetal bovine serum) and 2 mM L-glutamine.
Adherent H292 cells were removed from tissue culture flasks by treatment with Accutase™ cell detachment solution for 15 minutes. Flasks were incubated for 15 minutes in a humidified incubator at 37° C., 5% CO2. Detached cells were re-suspended in RPMI media (containing 10% (v/v) FBS and 2 mM L-glutamine) at 1×10^6 cells per mL. 10000 cells in 100 μL were added to each well of a tissue-culture-treated 96-well plate and the cells incubated overnight in a humidified incubator at 37° C., 5% CO2. The culture media was removed and cells were washed twice with 100 μL assay buffer and replaced with 50 μL assay buffer (HBSS solution containing 10 mM HEPES pH7.4 and 5 mM glucose). Cells were rested at room temperature for 20 minutes after which time 25 μL of rolipram (1.2 mM made up in assay buffer containing 2.4% (v/v) dimethylsulphoxide) was added. Cells were incubated with rolipram for 10 minutes after which time test compounds were added and the cells were incubated for 60 minutes at room temperature. The final rolipram concentration in the assay was 300 μM and final vehicle concentration was 1.6% (v/v) dimethylsulphoxide. The reaction was stopped by removing supernatants, washing once with 100 μL assay buffer and replacing with 50 μL lysis buffer. The cell monolayer was frozen at −80° C. for 30 minutes (or overnight).
AlphaScreen™ cAMP Detection
The concentration of cAMP (cyclic adenosine monophosphate) in the cell lysate was determined using AlphaScreen™ methodology. The frozen cell plate was thawed for 20 minutes on a plate shaker then 10 μL of the cell lysate was transferred to a 96-well white plate. 40 μL of mixed AlphaScreen™ detection beads pre-incubated with biotinylated cAMP, was added to each well and the plate incubated at room temperature for 10 hours in the dark. The AlphaScreen™ signal was measured using an EnVision spectrophotometer (Perkin-Elmer Inc.) with the recommended manufacturer's settings. cAMP concentrations were determined by reference to a calibration curve determined in the same experiment using standard cAMP concentrations. Concentration response curves for agonists were constructed and data was fitted to a four parameter logistic equation to determine both the pEC50 and Intrinsic Activity. Intrinsic Activity was expressed as a fraction relative to the maximum activity determined for formoterol in each experiment.

T1 sequence (P07550 whole entry): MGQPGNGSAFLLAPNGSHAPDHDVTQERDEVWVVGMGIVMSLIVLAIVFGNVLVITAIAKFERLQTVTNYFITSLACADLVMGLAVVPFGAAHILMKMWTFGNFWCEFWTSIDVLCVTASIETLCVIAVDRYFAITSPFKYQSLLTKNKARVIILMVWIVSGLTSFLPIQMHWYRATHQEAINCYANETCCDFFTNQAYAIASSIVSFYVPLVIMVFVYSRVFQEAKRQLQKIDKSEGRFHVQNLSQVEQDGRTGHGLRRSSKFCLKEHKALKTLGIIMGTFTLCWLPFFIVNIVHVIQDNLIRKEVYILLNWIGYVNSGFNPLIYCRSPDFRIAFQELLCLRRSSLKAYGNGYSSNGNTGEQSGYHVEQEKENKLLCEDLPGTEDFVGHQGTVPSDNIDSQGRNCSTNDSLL

Going from O=C1COc2c(CCNCCN(C(=O)CCNCCc3ccccc3)C3CCCCCC3)ccc(O)c2N1 [Example 24, N-Cycloheptyl-N-(2-(2-(5-hydroxy-3-oxo-3,4-dihydro-2H-benzo[b][1,4]oxazin-8-yl)ethylamino)ethyl)-3-(phenethylamino)propanamide bis(trifluoroacetate)] to O=C1COc2c(CCNCCN(C(=O)CCNCCc3cccc(F)c3)C3CCCCCC3)ccc(O)c2N1 [Example 69, N-Cycloheptyl-3-(3-fluorophenethylamino)-N-(2-(2-(5-hydroxy-3-oxo-3,4-dihydro-2H-benzo[b][1,4]oxazin-8-yl)ethylamino)ethyl)propanamide bis(trifluoroacetate)], the “β2 Int Act” value rises from 0.85 to 0.88.

O=C1COc2c(CCNCCN(C(=O)CCOCCc3cccc(F)c3)C3CCCCC3)ccc(O)c2N1 [Example 74, N-Cyclohexyl-3-(3-fluorophenethoxy)-N-(2-(2-(5-hydroxy-3-oxo-3,4-dihydro-2H-benzo[b][1,4]oxazin-8-yl)ethylamino)ethyl)propanamide trifluoroacetate] and O=C1COc2c(CCNCCN(C(=O)CCOCCc3ccccc3)C3CCCCC3)ccc(O)c2N1 [Example 70, N-Cyclohexyl-N-(2-(2-(5-hydroxy-3-oxo-3,4-dihydro-2H-benzo[b][1,4]oxazin-8-yl)ethylamino)ethyl)-3-phenethoxypropanamide trifluoroacetate] are the same in “β2 Int Act” value: 0.97 for the first, 0.97 for the second.

Going from CCCC[C@@H](C)N(CCNCCc1ccc(O)c2c1OCC(=O)N2)C(=O)CCNCCc1cccc(Cl)c1 [Example 44, (R)-3-(3-Chlorophenethylamino)-N-(hexan-2-yl)-N-(2-(2-(5-hydroxy-3-oxo-3,4-dihydro-2H-benzo[b][1,4]oxazin-8-yl)ethylamino)ethyl)propanamide bis(trifluoroacetate)] to CCCC[C@@H](C)N(CCNCCc1ccc(O)c2c1OCC(=O)N2)C(=O)CCNCCc1ccc(F)c(Cl)c1 [Example 48, (R)-3-(3-Chloro-4-fluorophenethylamino)-N-(hexan-2-yl)-N-(2-(2-(5-hydroxy-3-oxo-3,4-dihydro-2H-benzo[b][1,4]oxazin-8-yl)ethylamino)ethyl)propanamide bis(trifluoroacetate)], the “β2 Int Act” value rises from 0.89 to 0.91.

First: O=C1COc2c(CCNCCN(C(=O)CCNCCc3cccc(F)c3F)C3CCCCC3)ccc(O)c2N1 [Example 36, N-Cyclohexyl-3-(2,3-difluorophenethylamino)-N-(2-(2-(5-hydroxy-3-oxo-3,4-dihydro-2H-benzo[b][1,4]oxazin-8-yl)ethylamino)ethyl)propanamide bis(trifluoroacetate)]
Second: O=C1COc2c(CCNCCN(C(=O)CCNCCc3cc(F)ccc3F)C3CCCCCC3)ccc(O)c2N1 [Example 64, N-Cycloheptyl-3-(2,5-difluorophenethylamino)-N-(2-(2-(5-hydroxy-3-oxo-3,4-dihydro-2H-benzo[b][1,4]oxazin-8-yl)ethylamino)ethyl)propanamide bis(trifluoroacetate)]
The “β2 Int Act” value of the first is higher: 0.91 for the first, 0.88 for the second.

Going from O=C1COc2c(CCNCCN(C(=O)CCNCCc3ccc(C(=O)O)cc3)C3CCCCC3)ccc(O)c2N1 [Example 43, 4-(2-(3-(Cyclohexyl(2-(2-(5-hydroxy-3-oxo-3,4-dihydro-2H-benzo[b][1,4]oxazin-8-yl)ethylamino)ethyl)amino)-3-oxopropylamino)ethyl)benzoic acid bis(trifluoroacetate)] to O=C1COc2c(CCNCCN(C(=O)CCNCCc3ccc(F)c(F)c3)C3CCCCCC3)ccc(O)c2N1 [Example 67, N-Cycloheptyl-3-(3,4-difluorophenethylamino)-N-(2-(2-(5-hydroxy-3-oxo-3,4-dihydro-2H-benzo[b][1,4]oxazin-8-yl)ethylamino)ethyl)propanamide bis(trifluoroacetate)], the “β2 Int Act” value falls from 0.97 to 0.87.

Going from O=C1COc2c(CCNCCN(C(=O)CCNCCc3cccc(Cl)c3Cl)C3CCCCC3)ccc(O)c2N1 [Example 29, N-Cyclohexyl-3-(2,3-dichlorophenethylamino)-N-(2-(2-(5-hydroxy-3-oxo-3,4-dihydro-2H-benzo[b][1,4]oxazin-8-yl)ethylamino)ethyl)propanamide bis(trifluoroacetate)] to O=C1COc2c(CCNCCN(C(=O)CCNCCc3cc(Cl)ccc3F)C3CCCCC3)ccc(O)c2N1 [Example 34, 3-(5-Chloro-2-fluorophenethylamino)-N-cyclohexyl-N-(2-(2-(5-hydroxy-3-oxo-3,4-dihydro-2H-benzo[b][1,4]oxazin-8-yl)ethylamino)ethyl)propanamide bis(trifluoroacetate)], the “β2 Int Act” value falls from 0.91 to 0.9.

First: O=C(CCNCCc1cc(F)ccc1F)N(CCNCCc1ccc(O)c2[nH]c(=O)ccc12)C1CCCCC1 [Example 17, N-Cyclohexyl-3-(2,5-difluorophenethylamino)-N-(2-(2-(8-hydroxy-2-oxo-1,2-dihydroquinolin-5-yl)ethylamino)ethyl)propanamide bis(trifluoroacetate)]
Second: Cl.O=C(CCOCCc1cccc(F)c1)N(CCNCCc1ccc(O)c2[nH]c(=O)ccc12)C1CCCCC1 [Example 72, N-Cyclohexyl-3-(3-fluorophenethoxy)-N-(2-(2-(8-hydroxy-2-oxo-1,2-dihydroquinolin-5-yl)ethylamino)ethyl)propanamide hydrochloride]
The “β2 Int Act” value of the first is higher: 0.93 for the first, 0.92 for the second.

First: C[C@H](CNCCC(=O)N(CCNCCc1ccc(O)c2[nH]c(=O)ccc12)C1CCCCCC1)c1ccccc1 [Example 9, (S)—N-Cycloheptyl-N-(2-(2-(8-hydroxy-2-oxo-1,2-dihydroquinolin-5-yl)ethylamino)ethyl)-3-(2-phenylpropylamino)propanamide bis(trifluoroacetate)]
Second: O=C1COc2c(CCNCCN(C(=O)CCNCCc3cc(F)cc(Cl)c3)C3CCCCCC3)ccc(O)c2N1 [Example 66, 3-(3-Chloro-5-fluorophenethylamino)-N-cycloheptyl-N-(2-(2-(5-hydroxy-3-oxo-3,4-dihydro-2H-benzo[b][1,4]oxazin-8-yl)ethylamino)ethyl)propanamide bis(trifluoroacetate)]
The “β2 Int Act” value of the first is lower: 0.91 for the first, 0.99 for the second.

Compared with CCCC[C@@H](C)N(CCNCCc1ccc(O)c2c1OCC(=O)N2)C(=O)CCNCCc1cccc(F)c1F [Example 53, (R)-3-(2,3-Difluorophenethylamino)-N-(hexan-2-yl)-N-(2-(2-(5-hydroxy-3-oxo-3,4-dihydro-2H-benzo[b][1,4]oxazin-8-yl)ethylamino)ethyl)propanamide bis(trifluoroacetate)], CCCC[C@@H](C)N(CCNCCc1ccc(O)c2c1OCC(=O)N2)C(=O)CCNCCc1cc(F)cc(F)c1 [Example 51, (R)-3-(3,5-Difluorophenethylamino)-N-(hexan-2-yl)-N-(2-(2-(5-hydroxy-3-oxo-3,4-dihydro-2H-benzo[b][1,4]oxazin-8-yl)ethylamino)ethyl)propanamide bis(trifluoroacetate)] is lower in “β2 Int Act” value: 0.99 for the first, 0.94 for the second.

First: CCCC[C@@H](C)N(CCNCCc1ccc(O)c2c1OCC(=O)N2)C(=O)CCNCCc1ccc(Cl)c(Cl)c1 [Example 55, (R)-3-(3,4-Dichlorophenethylamino)-N-(hexan-2-yl)-N-(2-(2-(5-hydroxy-3-oxo-3,4-dihydro-2H-benzo[b][1,4]oxazin-8-yl)ethylamino)ethyl)propanamide bis(trifluoroacetate)]
Second: CCCC[C@@H](C)N(CCNCCc1ccc(O)c2c1OCC(=O)N2)C(=O)CCNCCc1ccc(Cl)cc1 [Example 45, (R)-3-(4-Chlorophenethylamino)-N-(hexan-2-yl)-N-(2-(2-(5-hydroxy-3-oxo-3,4-dihydro-2H-benzo[b][1,4]oxazin-8-yl)ethylamino)ethyl)propanamide bis(trifluoroacetate)]
The “β2 Int Act” value of the first is higher: 0.92 for the first, 0.89 for the second.

Going from CCCC[C@@H](C)N(CCNCCc1ccc(O)c2c1OCC(=O)N2)C(=O)CCNCCc1cc(F)cc(Cl)c1 [Example 50, (R)-3-(3-Chloro-5-fluorophenethylamino)-N-(hexan-2-yl)-N-(2-(2-(5-hydroxy-3-oxo-3,4-dihydro-2H-benzo[b][1,4]oxazin-8-yl)ethylamino)ethyl)propanamide bis(trifluoroacetate)] to CC(C)[C@@H](C)N(CCNCCc1ccc(O)c2c1OCC(=O)N2)C(=O)CCNCCc1ccc(Cl)c(Cl)c1 [Example 59, (R)-3-(3,4-Dichlorophenethylamino)-N-(2-(2-(5-hydroxy-3-oxo-3,4-dihydro-2H-benzo[b][1,4]oxazin-8-yl)ethylamino)ethyl)-N-(3-methylbutan-2-yl)propanamide dihydrochloride], the “β2 Int Act” value falls from 0.89 to 0.87.
